According to patent US12410174B1, “Small molecular inhibitors of sting signaling compositions and methods of use” (TYERELL IMMUNOTHERAPEUTICS INC, priority 2020, dated 2025):
Entries after “also recorded” stand apart in the source; their conditions may differ.

Assays:
[1] = system: TREX1-deficient macrophages; experiment: qPCR of Cxcl10 in TREX1 knockout (TKO) bone marrow derived macrophages; type: cell-based, mouse; settings: TKO BMDM, compared to DMSO control
Method: MEFs were obtained from E13.5 embryos by a standard procedure. Bone Marrow Derived Macro-phages (BMDM) were isolated from hind-limb femurs of 8-10 weeks old WT and Trex1 KO (TKO) mice. The hematopoietic cells from the bone marrow were cultured in complete DMEM (Invitrogen) including 10 ng/ml of Mouse Recombinant Colony-Stimulating Factor (M-CSF, R&D Systems) for 10 to 14 days.
Example 11: qPCR total RNA were reverse-transcribed using M-MLV Reverse Transcriptase (Promega). Real-time PCR was performed using Taqman Gene Expression Assay (Applied Biosystems) for innate immune genes and inflammatory cytokines.

[2] = target: T1, human STING CBD-CTT (152-379) (STING152-379H) (Homo sapiens, UniProt Q86WV6); experiment: Thermal shift assay (TSA) for binding to purified STING; settings: purified STING152-379H
T1 construct: Fraction containing the 237 amino acid (27 kDA) STING protein; made in house; host or cells: E. coli BL21 DE3 RIPL Codon Plus
T1 sequence (Q86WV6 with tags, fused parts or gaps): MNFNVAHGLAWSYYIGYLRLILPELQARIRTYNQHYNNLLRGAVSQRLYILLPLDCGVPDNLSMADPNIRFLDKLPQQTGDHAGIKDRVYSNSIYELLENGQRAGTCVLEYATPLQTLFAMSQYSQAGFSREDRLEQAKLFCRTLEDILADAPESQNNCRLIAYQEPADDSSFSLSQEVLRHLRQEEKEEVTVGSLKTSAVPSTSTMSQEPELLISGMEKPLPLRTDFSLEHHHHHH
Source text: Purified STING protein was used as bait to identify binding compounds, using a thermal shift assay (TSA). A library containing 250,000 compounds (Enamine, Monmouth Jct., NJ) was surveyed. Compounds that bound to STING were then examined for their ability to inhibit STING signaling, see Examples 1-4 vide infra. In the presence of cytosolic DNA species, STING becomes activated to drive the transcription of cytokines such as type I IFN. Compounds binding to STING via TSA were subsequently examined for their ability prevent cytosolic DNA species from activating the type I interferon (IFN) promoter, using a live cell assay. This assay comprised immortalized human fibroblasts (hTERT) that were stably transfected with the type I IFN promoter driving luciferase as well as the CMV promoter driving SEAP (hTERT-pIFNβ-Glu). The ability of the small molecules to prevent activation of the type I IFN promoter and the transcription of luciferase, but not SEAP in response to cytosolic DNA species can be assessed. The activation of STING, typically by CDNs, in turn activates the transcription factors NF-κB and IRF3, both of which are required to induce the transcriptional stimulation of the Type I IFN promoter, but not the CMV promoter (IRF3 and NF-kB transcription factor binding sites are not contained in the CMV promoter). […]

N#Cc1c(NC(=O)c2ccccc2Cl)n(Cc2ccccc2)c2nc3ccccc3nc12 [Compound Y1, N-{1-benzyl-3-cyano-1H-pyrrolo[2,3-ß]quinoxalin-2-yl}-2-chlorobenzamide]
Cxcl10 expression / cytokine production in TREX1-deficient macrophages (qPCR) [1]: can repress cytokine production in TREX1-defective cells; also recorded: dramatically decreased; also recorded: inhibits TREX1 dependent Cxcl10 expression | binding to STING (TSA) [2]: binds to and stabilizes STING; also recorded: can bind to STING
